Source: ChEMBL document CHEMBL4418493, “N-hydroxyformamide compounds and compositions comprising them for use as BMP1, TLL1 and/or TLL2 inhibitors” (2018)

Tests used:
[1] = Reduction in PICP levels in human cardiac fibroblasts incubated for 24 to 48 hrs by ELISA; type: functional
[2] = Reduction in mature collagen deposition levels in human cardiac fibroblasts incubated for 24 to 48 hrs by immunostaining based assay; type: functional
[3] = Drug metabolism in heparinized pooled human plasma at pH 7.5 assessed as conversion to active compound at 100 to 2000 ng/ml incubated for 4 by LC-MS/MS analysis; type: ADME, cell-free
[4] = Drug metabolism in heparinized pooled human plasma at pH 7.5 assessed as formation of N-(((R)-2-((R)-1-(N-hydroxyformamido)propyl)heptanamido)methyl)-5-phenylfuran-2-carboxamide at 100 to 2000 ng/ml incubated up to 4 or 24 hrs by LC-MS/MS analysis; type: ADME, cell-free; conditions: pH 7.5, 24 h
[5] = Stability in pH 7.96 assessed as compound purity level at 1 mg/ml heated to 40 degC and measured at 200 hrs by LC/MS analsysis; type: physicochemical; conditions: buffer, read-out: Stability
[6] = Drug metabolism in heparinized pooled human plasma at pH 7.5 assessed as formation of ((2-ethoxy-4-(5-((((R)-2-((R)-1-(N-hydroxyformamido)propyl)heptanamido)methyl)carbamoyl)furan-2-yl)benzamido)methyl)phosphonic acid at 100 to 2000 ng/ml incubated up to 4 or 24 hrs by LC-MS/MS analysis; type: ADME, cell-free; conditions: pH 7.5, 24 h
[7] = Drug metabolism in heparinized pooled human plasma at pH 7.5 assessed as formation of 4-(5-((((R)-2-((R)-1-(N-hydroxyformamido) propyl)heptanamido)methyl)carbamoyl)furan-2-yl)benzoic acid at 100 to 2000 ng/ml incubated up to 4 or 24 hrs by LC-MS/MS analysis; type: ADME, cell-free; conditions: pH 7.5, 24 h
[8] = Drug metabolism in heparinized pooled human plasma at pH 7.5 assessed as formation of (((3-ethoxy-5-(5-((((R)-2-((R)-1-(N-hydroxyformamido)propyl)heptanamido)methyl)carbamoyl)furan-2-yl)phenyl)(hydroxy)phosphoryl)oxy)methyl isopropyl carbonate at 100 to 2000 ng/ml incubated up to 4 or 24 hrs by LC-MS/MS analysis; type: ADME, cell-free; conditions: pH 7.5, 24 h
Tolloid-like protein 1 = Tolloid-like protein 1 (Homo sapiens, UniProt O43897, I156V/N221S/V284A); assay: Inhibition of recombinant human TLL1 I156V/N221S/V284A mutant expressed in CHOE1A cells pre-incubated for 10 mins before promyostatin peptide substrate addition and measured after 60 mins by FRET based assay; type: cell-based
Tolloid-like protein 1, sequence (O43897 148-1013 I156V/N221S/V284A limits assumed): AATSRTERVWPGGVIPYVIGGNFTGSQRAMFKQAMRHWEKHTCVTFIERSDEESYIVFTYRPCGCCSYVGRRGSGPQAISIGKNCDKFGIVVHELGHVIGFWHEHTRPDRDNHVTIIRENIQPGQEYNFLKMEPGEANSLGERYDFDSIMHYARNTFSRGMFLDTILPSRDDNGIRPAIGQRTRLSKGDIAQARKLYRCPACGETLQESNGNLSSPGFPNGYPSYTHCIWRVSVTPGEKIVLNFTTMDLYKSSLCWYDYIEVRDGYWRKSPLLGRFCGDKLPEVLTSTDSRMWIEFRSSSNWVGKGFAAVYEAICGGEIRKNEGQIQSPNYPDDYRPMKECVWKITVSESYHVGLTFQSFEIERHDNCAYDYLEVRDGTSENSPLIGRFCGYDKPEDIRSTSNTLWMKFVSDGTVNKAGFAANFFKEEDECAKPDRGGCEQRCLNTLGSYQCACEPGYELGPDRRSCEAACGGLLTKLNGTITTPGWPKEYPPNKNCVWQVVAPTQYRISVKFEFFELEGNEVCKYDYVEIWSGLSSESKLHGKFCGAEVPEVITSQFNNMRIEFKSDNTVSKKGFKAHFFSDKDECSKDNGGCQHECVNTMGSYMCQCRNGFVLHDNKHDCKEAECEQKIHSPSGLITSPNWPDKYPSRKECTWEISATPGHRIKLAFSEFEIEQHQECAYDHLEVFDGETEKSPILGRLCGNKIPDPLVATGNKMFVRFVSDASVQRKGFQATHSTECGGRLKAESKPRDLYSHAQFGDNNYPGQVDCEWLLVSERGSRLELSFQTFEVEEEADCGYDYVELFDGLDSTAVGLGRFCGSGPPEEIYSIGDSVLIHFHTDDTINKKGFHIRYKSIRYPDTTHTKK

Tolloid-like protein 2 = biological target: T1, Tolloid-like protein 2 (Homo sapiens, UniProt Q9Y6L7); assay: Inhibition of C-terminal Avi-6x-His epitope tagged and N-terminal human RAGE signal sequence tagged recombinant human TLL2 (26 to 1015 amino acids) expressed in CHOE1A cells incubated for 60 mins with promyostatin peptide substrate by FRET based assay; type: cell-based
T1 sequence (Q9Y6L7 whole entry): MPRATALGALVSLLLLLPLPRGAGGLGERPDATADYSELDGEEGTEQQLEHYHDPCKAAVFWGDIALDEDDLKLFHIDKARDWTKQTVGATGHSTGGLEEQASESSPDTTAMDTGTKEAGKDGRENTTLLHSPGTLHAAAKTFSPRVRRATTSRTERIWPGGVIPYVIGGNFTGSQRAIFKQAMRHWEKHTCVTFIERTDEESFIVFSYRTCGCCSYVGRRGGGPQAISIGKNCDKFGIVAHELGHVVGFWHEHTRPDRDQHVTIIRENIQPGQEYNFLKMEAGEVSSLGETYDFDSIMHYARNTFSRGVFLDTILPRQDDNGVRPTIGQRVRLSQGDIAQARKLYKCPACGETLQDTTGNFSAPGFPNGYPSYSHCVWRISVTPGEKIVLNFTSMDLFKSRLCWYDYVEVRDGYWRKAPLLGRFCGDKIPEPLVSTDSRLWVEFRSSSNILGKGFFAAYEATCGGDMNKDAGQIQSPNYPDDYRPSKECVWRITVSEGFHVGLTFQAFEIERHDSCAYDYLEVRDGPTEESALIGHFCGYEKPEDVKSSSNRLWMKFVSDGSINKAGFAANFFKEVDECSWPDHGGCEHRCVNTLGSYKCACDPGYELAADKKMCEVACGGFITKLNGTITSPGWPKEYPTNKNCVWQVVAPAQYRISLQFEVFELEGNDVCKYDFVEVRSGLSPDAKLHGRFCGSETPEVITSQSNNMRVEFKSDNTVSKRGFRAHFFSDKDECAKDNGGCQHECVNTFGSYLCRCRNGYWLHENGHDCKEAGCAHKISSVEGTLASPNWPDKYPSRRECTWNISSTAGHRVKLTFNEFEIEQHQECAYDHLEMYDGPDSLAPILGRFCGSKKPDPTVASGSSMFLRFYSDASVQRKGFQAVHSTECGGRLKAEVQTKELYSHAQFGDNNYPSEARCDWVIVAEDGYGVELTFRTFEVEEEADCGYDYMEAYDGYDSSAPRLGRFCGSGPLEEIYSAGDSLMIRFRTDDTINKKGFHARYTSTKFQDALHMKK

[9] = biological target: T2, Bone morphogenetic protein 1 (Homo sapiens, UniProt P13497); assay: Inhibition of C-terminal FLAG-6x-His epitope tagged and N-terminal human RAGE signal sequence tagged human BMP1 (121 to 721 amino acids) expressed in CHO-E1a cells pre-incubated for 10 mins before promyostatin peptide substrate addition and measured after 60 mins using 0.5 nM BMP1 by FRET based assay; type: cell-based
T2 sequence (P13497 whole entry): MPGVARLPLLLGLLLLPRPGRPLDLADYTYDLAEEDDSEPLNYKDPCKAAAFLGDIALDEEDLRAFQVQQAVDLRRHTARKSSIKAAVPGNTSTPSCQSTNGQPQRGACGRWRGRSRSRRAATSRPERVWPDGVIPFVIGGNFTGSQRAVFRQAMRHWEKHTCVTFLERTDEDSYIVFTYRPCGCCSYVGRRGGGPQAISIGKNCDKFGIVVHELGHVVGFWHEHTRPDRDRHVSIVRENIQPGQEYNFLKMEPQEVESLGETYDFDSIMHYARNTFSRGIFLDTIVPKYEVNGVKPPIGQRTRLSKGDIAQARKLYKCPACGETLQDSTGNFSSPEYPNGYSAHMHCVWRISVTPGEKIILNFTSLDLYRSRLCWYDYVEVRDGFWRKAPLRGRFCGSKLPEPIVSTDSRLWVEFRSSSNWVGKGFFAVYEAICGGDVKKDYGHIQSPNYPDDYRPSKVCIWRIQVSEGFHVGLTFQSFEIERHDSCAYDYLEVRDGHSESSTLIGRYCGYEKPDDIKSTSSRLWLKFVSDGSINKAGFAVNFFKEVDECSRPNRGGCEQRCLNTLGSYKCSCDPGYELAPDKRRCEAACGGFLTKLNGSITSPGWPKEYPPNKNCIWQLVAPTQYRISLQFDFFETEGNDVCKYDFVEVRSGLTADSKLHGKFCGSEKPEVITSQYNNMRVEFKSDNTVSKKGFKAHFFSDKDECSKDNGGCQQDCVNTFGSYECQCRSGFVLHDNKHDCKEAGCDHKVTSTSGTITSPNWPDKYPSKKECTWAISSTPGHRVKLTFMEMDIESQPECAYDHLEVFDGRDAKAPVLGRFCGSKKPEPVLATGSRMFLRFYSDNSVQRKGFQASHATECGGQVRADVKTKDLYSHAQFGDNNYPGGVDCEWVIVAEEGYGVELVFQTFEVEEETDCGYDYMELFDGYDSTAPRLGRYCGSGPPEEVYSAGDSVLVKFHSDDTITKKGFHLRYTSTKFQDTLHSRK

Structure (SMILES)	IC50 [1] [µM]	Drug metabolism [3] [%]	Drug metabolism [4]	remaining at 200 h, 1 mg/ml [5] [%]	also measured
CCCCC[C@@H](C(=O)NCNC(=O)c1ccc(-c2ccccc2)o1)[C@@H](CC)N(C=O)OC(=O)OC(C)(C)C	< 3.98	> 10	Metabolite_Detected	< 80	IC50 [2]: < 1 µM
CCCCC[C@@H](C(=O)NCNC(=O)c1ccc(-c2ccccc2)o1)[C@@H](CC)N(C=O)OC(=O)C(C)(C)C	< 3.98	> 10	Metabolite_Detected	< 80	–
CCCCC[C@@H](C(=O)NCNC(=O)c1ccc(-c2ccc(C(=O)NCP(=O)(O)O)c(OCC)c2)o1)[C@@H](CC)N(C=O)OC(=O)c1ccc(OC)cc1C	< 3.98	–	–	–	Drug metabolism [6]: Metabolite_Detected
CCCCC[C@@H](C(=O)NCNC(=O)c1ccc(-c2ccc(C(=O)NCP(=O)(O)O)c(OCC)c2)o1)[C@@H](CC)N(C=O)OC(=O)c1ccc(CN2CCOCC2)cc1C.O=C(O)C(F)(F)F	< 3.98	–	–	–	Drug metabolism [6]: Metabolite_Detected
CCCCC[C@@H](C(=O)NCNC(=O)c1ccc(-c2ccc(C(=O)OCCN3CCOCC3)cc2)o1)[C@@H](CC)N(O)C=O	< 3.98	–	–	–	Drug metabolism [7]: Metabolite_Detected
CCCCC[C@@H](C(=O)NCNC(=O)c1ccc(-c2cc(OCC)cc(P(=O)(OCOC(=O)OC(C)C)OCOC(=O)OC(C)C)c2)o1)[C@@H](CC)N(O)C=O	–	–	–	–	Drug metabolism [8]: Metabolite_Detected
CCCCC[C@@H](C(=O)NCNC(=O)c1ccc(-c2ccccc2)o1)[C@@H](CC)N(C=O)OCOP(=O)(O)O.N.N	–	–	Metabolite_Detected	–	–
CCCCC[C@@H](C(=O)NCNC(=O)c1ccc(-c2ccc(C(=O)OCC(=O)N(C)C)cc2)o1)[C@@H](CC)N(O)C=O	< 3.98	–	–	–	Drug metabolism [7]: Metabolite_Detected
CCCCC[C@@H](C(=O)NCNC(=O)c1ccc(-c2ccc(C(=O)N[C@@H](CC(=O)OC)C(=O)OC)c(OCC(=O)OC)c2)o1)[C@@H](CC)N(O)C=O	0.398 to 3.98	–	–	< 80	IC50 (Tolloid-like protein 1): 0.251 to 0.398 µM; IC50 (Tolloid-like protein 2): 0.398 to 0.794 µM; IC50 [9]: 0.126 to 0.316 µM
CCCCC[C@@H](C(=O)NCNC(=O)c1ccc(-c2ccc(C(=O)OCCc3ccccc3)cc2)o1)[C@@H](CC)N(O)C=O	< 3.98	–	–	–	Drug metabolism [7]: Metabolite_Detected
CCCCC[C@@H](C(=O)NCNC(=O)c1ccc(-c2ccccc2)o1)[C@@H](CC)N(C=O)OC(=O)c1ccccc1	< 3.98	> 10	Metabolite_Detected	< 80	–
CCCCC[C@@H](C(=O)NCNC(=O)c1ccc(-c2ccc(C(=O)O)cc2)o1)[C@@H](CC)N(C=O)OC(=O)c1ccccc1	–	–	–	–	Drug metabolism [7]: Metabolite_Detected
CCCCC[C@@H](C(=O)NCNC(=O)c1ccc(-c2ccc(C(=O)NCP(=O)(O)O)c(OCC)c2)o1)[C@@H](CC)N(C=O)OC(=O)c1ccccc1	< 3.98	–	–	–	Drug metabolism [6]: Metabolite_Detected
CCCCC[C@@H](C(=O)NCNC(=O)c1ccc(-c2ccccc2)o1)[C@@H](CC)N(C=O)OC(=O)Cc1ccccc1	< 3.98	> 10	Metabolite_Detected	< 80	–
CCCCC[C@@H](C(=O)NCNC(=O)c1ccc(-c2ccccc2)o1)[C@@H](CC)N(C=O)OC(=O)OC	< 3.98	> 10	Metabolite_Detected	< 80	–
CCCCC[C@@H](C(=O)NCNC(=O)c1ccc(-c2ccc(C(=O)NCP(=O)(O)O)c(OCC)c2)o1)[C@@H](CC)N(C=O)OC(=O)c1ccc(OC)cc1	< 3.98	–	–	–	IC50 [2]: < 1 µM; Drug metabolism [6]: Metabolite_Detected
